{
  "source": "patent US10919941B2",
  "about": "“Functional lipid constructs” (KODE BIOTECH LIMITED, priority 2007, dated 2021)",
  "key": {"[1]": {"system": "Miltenberger Antibody Positive Panel", "experiment": "Reactivity of modified RBCs against the Miltenberger Antibody Positive Panel", "assay_type": "cell-based, human", "design": "key to score vs panel 15 TAP2 / score vs panel 4 T7202 / score vs panel 8 T5896 / score vs panel 2 T217 / score vs panel 3 T165 / score vs panel 14 TAP1 / score vs panel 10 Mia / score vs panel 11 Mur / score vs panel 12 Gam / score vs panel 6 T6025 / score vs panel 7 T8445 / score vs panel 9 MIII / score vs panel 13 BoxH / reactivity with Panel Serum #7 (T8445) / agglutination score, Panel Serum #7 (T8445): 0 or ‘−’ no agglutination; 0 or ‘−’ no agglutination; 1+ or 3=very weak agglutination; 1+ or 3=very weak agglutination; 2+ or 5=weak agglutination; 2+ or 5=weak agglutination; 3+ or 8=moderate strong agglutination; 3+ or 8=moderate strong agglutination; 4+ or 10/12=strong agglutination; 4+ or 10/12=strong agglutination; 4+ or 10/12=strong agglutination"}, "[2]": {"system": "natural Mi III antibody reactive human serums", "experiment": "Positive serum reactivity of modified RBCs in the field", "assay_type": "cell-based", "design": "key: 0 or ‘−’ no agglutination; 0 or ‘−’ no agglutination; 1+ or 3=very weak agglutination; 1+ or 3=very weak agglutination; 2+ or 5=weak agglutination; 2+ or 5=weak agglutination; 3+ or 8=moderate strong agglutination; 3+ or 8=moderate strong agglutination; 4+ or 10/12=strong agglutination; 4+ or 10/12=strong agglutination; 4+ or 10/12=strong agglutination", "settings": "22 at 50, 17 and 24 at 200 μg/ml; 3 h RT then 18 h 4° C.", "description": "The suspensions are either: • 1. incubated for 2 hours at 37° C. before being washed and suspended in a cell medium for serological analysis at a concentration of 0.8 to 3% (Method 1); or • 2. incubated for 3 to 4 hours at room temperature (circa 25° C.) followed by 18 hours at 4° C. before being washed and suspended in a cell medium for serological analysis at a concentration of 0.8 to 3% (Method 2).\nSerological reactions are graded or scored by either of two established systems (0 or ‘−’ no agglutination, 1+ or 3=very weak agglutination, 2+ or 5=weak agglutination, 3+ or 8=moderate strong agglutination, 4+ or 10/12=strong agglutination)"}, "[3]": {"system": "TAP1 serum (Taiwan Miltenberger antibody positive sample)", "experiment": "Anti-MUT serum (TAP1) reactivity of modified RBCs (saline and AHG)", "assay_type": "cell-based, human", "design": "key: 0 or ‘−’ no agglutination; 0 or ‘−’ no agglutination; 1+ or 3=very weak agglutination; 1+ or 3=very weak agglutination; 2+ or 5=weak agglutination; 2+ or 5=weak agglutination; 3+ or 8=moderate strong agglutination; 3+ or 8=moderate strong agglutination; 4+ or 10/12=strong agglutination; 4+ or 10/12=strong agglutination; 4+ or 10/12=strong agglutination"}},
  "note": "No end group written: not given here.",
  "data": [
    {"substance": "M22: DOPE peptide-lipid construct: MUTK peptide SQTNDKHKRD, leader c, spacer CMG(2) (SQTNDKHKRDC; also: DOPE peptide-lipid construct via leader Cys, spacer CMG(2))", "values": [
      {"measurement": "sensitivity and specificity towards a human polyclonal antibody panel compared with sequence 1", "setting": "[1]; MUT peptides, prior art sequence 1", "value": "superior sensitivity and specificity"},
      {"measurement": "score vs panel 2 T217", "setting": "[1]; Table 8, construct 200 μg/ml", "value": 0},
      {"measurement": "score vs panel 3 T165", "setting": "[1]; Table 8, construct 200 μg/ml", "value": 0},
      {"measurement": "score vs panel 4 T7202", "setting": "[1]; Table 8, construct 200 μg/ml", "value": 0},
      {"measurement": "score vs panel 6 T6025", "setting": "[1]; Table 8, construct 200 μg/ml", "value": 10},
      {"measurement": "score vs panel 7 T8445", "setting": "[1]; Table 8, construct 200 μg/ml", "value": 0},
      {"measurement": "score vs panel 8 T5896", "setting": "[1]; Table 8, construct 200 μg/ml", "value": 0},
      {"measurement": "score vs panel 9 MIII", "setting": "[1]; Table 8, construct 200 μg/ml", "value": 0},
      {"measurement": "score vs panel 10 Mia", "setting": "[1]; Table 8, construct 200 μg/ml", "value": 0},
      {"measurement": "score vs panel 11 Mur", "setting": "[1]; Table 8, construct 200 μg/ml", "value": 0},
      {"measurement": "score vs panel 12 Gam", "setting": "[1]; Table 8, construct 200 μg/ml", "value": 3},
      {"measurement": "score vs panel 15 TAP2", "setting": "[1]; Table 8, construct 200 μg/ml", "value": 0},
      {"measurement": "score vs Mi III reactive serum 488-6", "setting": "[2]", "value": 10},
      {"measurement": "score vs Mi III reactive serum 589-6", "setting": "[2]", "value": 0},
      {"measurement": "score vs Mi III reactive serum 621-3", "setting": "[2]", "value": 5},
      {"measurement": "score vs Mi III reactive serum 912485657-9", "setting": "[2]", "value": 0},
      {"measurement": "score vs Mi III reactive serum 914146821-8", "setting": "[2]", "value": 0},
      {"measurement": "score vs Mi III reactive serum 922390844-5", "setting": "[2]", "value": 0},
      {"measurement": "score vs Mi III reactive serum 926190919-0", "setting": "[2]", "value": 0},
      {"measurement": "score vs Mi III reactive serum 926555294-1", "setting": "[2]", "value": 0},
      {"measurement": "score vs Mi III reactive serum 927175131-4", "setting": "[2]", "value": 0},
      {"measurement": "score vs Mi III reactive serum 927299700-1", "setting": "[2]", "value": 0},
      {"measurement": "score vs Mi III reactive serum 927516053-2", "setting": "[2]", "value": 0},
      {"measurement": "score vs Mi III reactive serum 927619701-8", "setting": "[2]", "value": 0},
      {"measurement": "score vs Mi III reactive serum 932360876-4", "setting": "[2]", "value": 0},
      {"measurement": "score vs Mi III reactive serum 932467774-5", "setting": "[2]", "value": 0},
      {"measurement": "score vs Mi III reactive serum 932809044-1", "setting": "[2]", "value": 0},
      {"measurement": "score vs Mi III reactive serum 942223755-1", "setting": "[2]", "value": 0},
      {"measurement": "score vs Mi III reactive serum 942404708-4 (row interpreted Mur)", "setting": "[2]", "value": 0},
      {"measurement": "score vs Mi III reactive serum 942404708-4 (row interpreted other)", "setting": "[2]", "value": 0},
      {"measurement": "score vs Mi III reactive serum 942421413-0", "setting": "[2]", "value": 0},
      {"measurement": "score vs Mi III reactive serum 942423002-4", "setting": "[2]", "value": 0},
      {"measurement": "score vs Mi III reactive serum 942433813-3", "setting": "[2]", "value": 0},
      {"measurement": "score vs Mi III reactive serum 942433855-3", "setting": "[2]", "value": 0},
      {"measurement": "score vs Mi III reactive serum 942442720-2", "setting": "[2]", "value": 0},
      {"measurement": "score vs Mi III reactive serum 942448627-8", "setting": "[2]", "value": 0},
      {"measurement": "score vs Mi III reactive serum 942753165-4", "setting": "[2]", "value": 0},
      {"measurement": "score vs Mi III reactive serum 942762589-1", "setting": "[2]", "value": 0},
      {"measurement": "score vs Mi III reactive serum 9322338631", "setting": "[2]", "value": 0},
      {"measurement": "score vs Mi III reactive serum 9325490091", "setting": "[2]", "value": 5},
      {"measurement": "score vs Mi III reactive serum 9327986660", "setting": "[2]", "value": 8},
      {"measurement": "score vs Mi III reactive serum 9328118428", "setting": "[2]", "value": 0},
      {"measurement": "score vs Mi III reactive serum 9328154853", "setting": "[2]", "value": 0},
      {"measurement": "score vs Mi III reactive serum 9328791834", "setting": "[2]", "value": 5},
      {"measurement": "score vs Mi III reactive serum 9424248012", "setting": "[2]", "value": 0},
      {"measurement": "score vs Mi III reactive serum 9424292604", "setting": "[2]", "value": 0},
      {"measurement": "score vs Mi III reactive serum 9424396133", "setting": "[2]", "value": 0},
      {"measurement": "score vs Mi III reactive serum 9425256505", "setting": "[2]", "value": 0},
      {"measurement": "score vs Mi III reactive serum 9427455417", "setting": "[2]", "value": 0},
      {"measurement": "score vs Mi III reactive serum 9427613497", "setting": "[2]", "value": 0},
      {"measurement": "score vs Mi III reactive serum 9427615156", "setting": "[2]", "value": 0},
      {"measurement": "score vs Mi III reactive serum S-3", "setting": "[2]", "value": 0},
      {"measurement": "TAP 1 Serum, AHG score", "setting": "[3]; construct 10 μg/ml", "value": 5},
      {"measurement": "TAP 1 Serum, Saline score", "setting": "[3]; construct 10 μg/ml", "value": 0},
      {"measurement": "TAP 1 Serum, AHG score", "setting": "[3]; construct 20 μg/ml", "value": 8},
      {"measurement": "TAP 1 Serum, Saline score", "setting": "[3]; construct 20 μg/ml", "value": 0},
      {"measurement": "TAP 1 Serum, AHG score", "setting": "[3]; construct 50 μg/ml", "value": 8},
      {"measurement": "TAP 1 Serum, Saline score", "setting": "[3]; construct 50 μg/ml", "value": 0},
      {"measurement": "Reactivity with anti-MUT serum TAP1", "setting": "[3]; construct 50 μg/ml (2 hours, 37° C.)", "value": 8},
      {"measurement": "TAP 1 Serum, AHG score", "setting": "[3]; construct 100 μg/ml", "value": 8},
      {"measurement": "TAP 1 Serum, Saline score", "setting": "[3]; construct 100 μg/ml", "value": 0},
      {"measurement": "TAP 1 Serum, AHG score", "setting": "[3]; construct 200 μg/ml", "value": 10},
      {"measurement": "TAP 1 Serum, Saline score", "setting": "[3]; construct 200 μg/ml", "value": 0}
    ]}
  ]
}
